Laboratory results from patent US6255080A, “Bacteriocins produced by ruminal bacteria” (priority 1998, dated 2001).
“Also recorded” adds a separate entry of the source.

Assays:
[1] = tested on: indicator; experiment: Effect of detergents on the indicator; type: cell-based
Procedure: Further increases in carbohydrate beyond 2% (w/v) had no further effect on enhancing production in liquid culture. As several bacteriocins are known to be cell associated (Jack et al., 1995), bound activity was assayed for by washing pelleted cells with various detergents (Triton X-100, Tween 80, Tween 20). […] However, both Tween 80 and Tween 20 appeared to have no detrimental efLect on the indicator at levels of up to 1.0% (v/v).

[2] = tested on: indicator strain of B. fibrisolvens; experiment: Drop (spot) test and diffusion well assay of inhibitory activity; type: cell-based, Butyrivibrio fibrisolvens; settings: spot testing, peptide purified by reverse phase chromatography
Procedure: Isolates found to produce bacteriocin-like activity using the deferred plating technique were tested for the production of bacteriocin-like activity in liquid cultures. Briefly, following overnight growth in L-10 medium, a 1.0 ml sample of the culture was centrifuged to remove the cells, and a 100 μl aliquot dropped onto a sterile petri dish and sterilised by exposure to shortwave ultraviolet light for a five minute period. Bacteriocin-like activity within the uv-sterilized spent culture fluid was assayed using both a drop test and diffusion well assay (Tagg et al., 1976). All steps were carried out under anerobic conditions in a glove box.
The active component was purified by FPLC ([…] System, Pharmacia) using reverse phase chromatography. All steps were carried out at 4° C. Solvents consisted of dH2 O (buffer A) and 2-propanol (buffer B), both of which contained 0.1% trifluoroacetic acid. A 0.5 ml aliquot of the crude bacteriocin preparation containing […] was injected onto a Resource RPC 3.0 ml column (Pharmacia), washed with two column volumes of buffer A, and eluted from the column with a gradient from 100% buffer A to 100% buffer B, at a flow rate of 1.0 ml/minute. The elution was monitored at 206 nm. […]

[3] = tested on: a-chymotrypsin or pronase; experiment: Protease sensitivity in liquid (spent culture medium or purified bacteriocin), drop test; type: in vitro ADME; settings: purified bacteriocin treated prior to sample preparation
Procedure: Determination of protease sensitivity of bacteriocin-like activity in liquid cultures was carried out as follows: 10 μl of a stock solution (10 mg/ml) of each protease was added to 100 μl of either spent culture medium or the purified bacteriocin, and incubated at 37° C. for 2 hours, after which activity was assessed using a drop test (Tagg et al., 1976). Controls consisted of protease only (1 in 10 dilution) spotted directly onto an overlay containing the indicator organism.
The purity of the peptide was assessed using Triacine-sodium-dodecyl-sulphate-polyacrylamide gel electrophoresis analysis followed by silver staining. […] Protease sensitivity of the isolated bacteriocin was identical to the protease sensitivity of the inhibitor produced in the deferred plate test (see above).

Molecule: CCCCCCCC/C=C\CCCCCCCC(=O)OCCOCC(OCCO)C1OCC(OCCO)C1OCCO (centres unmarked) [Tween 80]
- level with no detrimental effect on the indicator [1]: up to 1.0 % (v/v)

Molecule: Butyrivibriocin AR10
- inhibitory activity of the purified peptide [2]: inhibitory activity; also recorded: inhibitory to the growth
- effect of a-chymotrypsin treatment on inhibitory activity [3]: completely eliminated inhibitory activity
- effect of pronase treatment on inhibitory activity [3]: completely eliminated inhibitory activity

Molecule: Triton X-100
- level very detrimental to the indicator ([1]; detergent): less than 0.1 % (v/v)
